# Measurements from patent US20220251109A1, “OXAAZAQUINAZOLINE-7(8H)-KETONE COMPOUND, PREPARATION METHOD THEREFOR AND PHARMACEUTICAL APPLICATION THEREOF” (GENFLEET THERAPEUTICS (SHANGHAI) INC., priority 2019, published 2022).
# Where two headings read alike, the source gives them in different places.
# Tests used:
# Format in all cases: cell-based, human
# [1] = tested on: A549 cells (Kras G12S mutation); experiment: Cell proliferation inhibition experiment, 3D model, CellTiter-Glo (A549); details: A549, 3D sphere plate, 5 days, 2% FBS
# Procedure: (§1) NCI-H358 was a human non-small cell lung cancer cell line with Kras G12C mutation, cultured in 10% FBS RPMI-1640 medium; A549 was a human lung adenocarcinoma cell line with Kras G12S mutation, cultured in 10% FBS F-12K medium. The cells in the logarithmic growth phase was taken, digested with trypsin EDTA, collected and counted, and H358 was adjusted to 1.8E4 cells/ml using 2% FBS RPMI-1640 medium, and A549 was adjusted to 8.9E3 cells/ml using 2% FBS F-12K medium; 800 (45 μl) H358 or 400 (45 μl) A549 cells were seeded in a 384-well sphere plate respectively, cultured overnight to establish a 3D cell model. DMSO was used to prepare 1000× compound 3.16-fold gradient concentration stock solution, and 2% FBS medium was used to dilute 100-fold to 10× compound stock solution. On the second day after cell seeding, 5 μl 10× compound stock solution was added to each cell culture well, the final concentration was 1×, and DMSO content was 0.1%. DMSO was used as the experimental control (control) and 2% FBS medium as the blank control (blank). After the compound and cells were added and cultured for 5 days, 25 μl CellTiter-Glo working solution was added to each well, mixed at 400 rpm and incubated for 30 minutes. After 30 minutes at room temperature, 40 μl of the mixture was transferred to a 384-well plate with a non-transparent white bottom, the luminescence chemiluminescence value was read, and the cells proliferation inhibition rate IR (%)=(RLU control-RLU compound)/(RLU control-RLU blank)×100% was calculated, Prism 6 four-parameter method was used to fit the compound's gradient dilution concentration and the corresponding cell proliferation inhibition rate, and the IC50 value was calculate.
# [2] = tested on: MIA PaCa-2 cells (Kras G12C mutation); experiment: Cell proliferation inhibition experiment, 3D model, CellTiter-Glo (MIA PaCa-2); details: MIA PaCa-2, 3D sphere plate, 5 days, read-out: MIA-PaCa2 IC50
# Procedure: MIA PaCa2 was a human pancreatic cancer cell line with Kras G12C mutation, cultured in 10% FBS+2.5% Horse serum DMEM medium; A549 was a human lung adenocarcinoma cell line with Kras G12S mutation, cultured in 10% FBS F-12K medium. The cells in the logarithmic growth phase were taken, digested with enzyme EDTA, collected, counted and 200 MIA PaCa-2 or 400 A549 cells were seeded in a 384-well sphere plate respectively, cultured overnight to establish a 3D cell model. DMSO was used to prepare 1000× compound 3.16-fold gradient concentration stock solution, and medium was used to dilute 100-fold to 10× compound stock solution. On the second day after cell seeding, 10× compound stock solution was added to each cell culture well, the final concentration was 1×, and DMSO content was 0.1%. DMSO was used as an experimental control (control), medium as the blank control (blank). After the compound and cells were added and cultured for 5 days, 30 μl CellTiter-Glo working solution was added to each well, mixed and incubated for 30 minutes. After 30 minutes at room temperature, 40 μl of the mixture was transferred to a 384-well plate with a non-transparent white bottom, the luminescence chemiluminescence value was read, and the cells proliferation inhibition rate IR (%)=(RLU control-RLU compound)/(RLU control-RLU blank)×100% was calculated, XLFit four-parameter method was used to fit the compound's gradient dilution concentration and the corresponding cell proliferation inhibition rate, and the IC50 value was calculate.
# [3] = tested on: NCI-H358 cells (Kras G12C mutation); experiment: Cell proliferation inhibition experiment, 3D model, CellTiter-Glo (NCI-H358); details: NCI-H358, 3D sphere plate, 5 days, 2% FBS
# Procedure: as §1
# [4] = Homo sapiens, MIA PaCa-2, 120 h
Structure (SMILES),IC50 [1],IC50 [2],IC50 [3],"IC50 ([1]; Homo sapiens, A549, 120 h)","IC50 [2, 4]","IC50 ([3]; Homo sapiens, NCI-H358, 120 h)"
"C=CC(=O)N1CCN2c3nc(=O)n(-c4c(C)ccnc4C(C)C)c4cc(-c5c(C)ccc6[nH]ncc56)c(Cl)c(c34)OC[C@H]2C1 (atropisomer, axis not shown) [Compound Z30-2-2]",> 10 µM,4 nM,3 nM,–,–,–
"C=CC(=O)N1CCN2c3nc(=O)n(-c4c(C)ccnc4C(C)C)c4cc(-c5c(O)cccc5F)c(Cl)c(c34)OC[C@H]2C1 (single isomer, unassigned) [Compound Z29-2]",> 10 µM,6 nM,5 nM,–,–,–
"[2H]C([2H])([2H])Oc1cccc(F)c1-c1nc2c3c(nc(=O)n2-c2c(C)ccnc2C(C)C)N2CCN(C(=O)C=C)C[C@@H]2COc3c1F (single isomer, unassigned) [Compound Z100-1]",–,–,2 nM,19.7 µM,4 nM,–
"C=CC(=O)N1CCN2c3nc(=O)n(-c4c(C)ccnc4C4CC4)c4nc(-c5ccccc5F)c(Cl)c(c34)OC[C@H]2C1 (single isomer, unassigned) [Compound Z102-1]",–,4 nM,4 nM,13.3 µM,–,–
C=CC(=O)N1CCN2c3nc(=O)n(-c4c(C)ccnc4C(C)C)c4nc(-c5ccccc5F)c(Cl)c(c34)OC[C@@H]2C1 [Compound Z46],–,–,–,> 10 µM,20 nM,5 nM
"C=CC(=O)N1CCN2c3nc(=O)n(-c4c(C)ccnc4C4CC4)c4nc(-c5ccccc5F)c(Cl)c(c34)OC[C@H]2C1 (single isomer, unassigned) [Compound Z102-2]",12.2 µM,83 nM,27 nM,–,–,–
"C=CC(=O)N1CCN2c3nc(=O)n(-c4c(C)ccnc4C(C)C)c4cc(-c5c(C)ccc6[nH]ncc56)cc(c34)OC[C@@H]2C1 (single isomer, unassigned) [Compound Z19-2]",12 µM,–,25 nM,–,24 nM,–
"C=CC(=O)N1CCN2c3nc(=O)n(-c4c(C)ncnc4C(C)C)c4nc(-c5c(O)cccc5F)c(F)c(c34)OC[C@H]2C1 (single isomer, unassigned) [Compound Z101-1]",–,56 nM,42 nM,> 10 µM,–,–
C=CC(=O)N1CCN2c3nc(=O)n(C4CC4)c4cc(-c5c(C)ccc6[nH]ncc56)c(Cl)c(c34)OC[C@@H]2C1 [Compound Z17],–,–,–,22.9 µM,55 nM,63 nM
"C=CC(=O)N1CCN2c3nc(=O)n(-c4c(C)ccnc4C(C)C)c4nc(-c5c(O)cccc5F)cc(c34)OC[C@@H]2C1 (single isomer, unassigned) [Compound Z36-2]",–,–,–,14.4 µM,121 nM,68 nM
"C=CC(=O)N1CCN2c3nc(=O)n(C4CC4)c4cc(-c5c(C)ccc6[nH]ncc56)c(Cl)c(c34)OC[C@@H]2C1 (single isomer, unassigned) [Compound Z17-2]",–,–,–,12.8 µM,33 nM,37 nM
"C=CC(=O)N1CCN2c3nc(=O)n(-c4c(C)ccnc4C(C)C)c4nc(-c5c(F)ccc(Cl)c5O)c(Cl)c(c34)OC[C@@H]2C1 [Compound Z52, (5 aS)-7-acryloyl-3-chloro-2-(3-chloro-6-fluoro-2-hydroxyphenyl)-12-(2-isopropyl-4-methylpyridin-3-yl)-5,5a,6,7,8,9-hexahydro-4-oxo-1,7,9a,10,12-pentazabenzo[4,5]cyclohepta[1,2,3-de]naphthalen-11 (12H)-one]",–,–,–,> 10 µM,23 nM,4 nM
C=CC(=O)N1CCN2c3nc(=O)n(-c4c(C)ccnc4C(C)C)c4cc(-c5c(O)cccc5F)c(Cl)c(c34)OC[C@@H]2C1 [Compound Z31],–,–,–,12.3 µM,25 nM,47 nM
"C=CC(=O)N1CCN2c3nc(=O)n(-c4ccccc4C(C)C)c4cc(-c5c(C)ccc6[nH]ncc56)c(Cl)c(c34)OC[C@@H]2C1 (single isomer, unassigned) [Compound Z20-3]",> 10 µM,0.5 nM,0.6 nM,–,–,–
C=CC(=O)N1CCN2c3nc(=O)n(-c4cccnc4C(C)C)c4cc(-c5c(C)ccc6[nH]ncc56)c(Cl)c(c34)OC[C@@H]2C1 [Compound Z39],–,–,–,–,444 nM,–
C=CC(=O)N1CCN2c3nc(=O)n(-c4c(C)ccnc4C(C)C)c4cc(-c5c(O)cccc5F)c(Cl)c(c34)OC[C@H]2C1 [Compound Z29],–,14 nM,7 nM,12.6 µM,–,–
C=CC(=O)N1CCN2c3nc(=O)n(-c4c(C)ccnc4C(C)C)c4nc(-c5cc(Cl)ccc5F)c(Cl)c(c34)OC[C@@H]2C1 [Compound Z59],–,–,–,> 10 µM,26 nM,6 nM
C=CC(=O)N1CCN2c3nc(=O)n(-c4c(C)ccnc4C(C)C)c4nc(-c5cc(F)ccc5O)c(Cl)c(c34)OC[C@@H]2C1 [Compound Z55],–,–,–,> 10 µM,26 nM,9 nM
C=CC(=O)N1CCN2c3nc(=O)n(-c4c(C)ccnc4C(C)C)c4nc(-c5c(F)cccc5F)c(Cl)c(c34)OC[C@@H]2C1 [Compound Z68],–,–,–,> 10 µM,9 nM,3 nM
"Cc1ccnc(C(C)C)c1-n1c(=O)nc2c3c(c(Cl)c(-c4ccccc4F)nc31)OC[C@H]1CN(C(=O)/C=C/CN(C)C)CCN21 (single isomer, unassigned) [Compound Z237-2]",–,–,–,> 30 µM,48 nM,47 nM
"C=CC(=O)N1CCN2c3nc(=O)n(-c4c(C)ncnc4C(C)C)c4nc(-c5c(O)cccc5F)c(F)c(c34)OC[C@H]2C1 (single isomer, unassigned) [Compound Z101-2]",> 10 µM,3 nM,3 nM,–,–,–
"C=CC(=O)N1CCN2c3nc(=O)n(-c4c(C)ccnc4C(C)C)c4cc(-c5c(C)ccc6[nH]ncc56)c(Cl)c(c34)OC[C@H]2C1 (single isomer, unassigned) [Compound Z30-1]",25 µM,78 nM,65 nM,–,–,–
"C=CC(=O)N1CCN2c3nc(=O)n(-c4ccccc4C(C)C)c4cc(-c5c(C)ccc6[nH]ncc56)c(Cl)c(c34)OC[C@@H]2C1 (single isomer, unassigned) [Compound Z20-1]",12.2 µM,17 nM,10 nM,–,–,–
C=CC(=O)N1CCN2c3nc(=O)n(-c4ccccc4C(C)C)c4cc(-c5c(C)ccc6[nH]ncc56)c(Cl)c(c34)OC[C@@H]2C1 [Compound Z20],–,–,–,3.76 µM,15 nM,5 nM
"C=CC(=O)N1CCN2c3nc(=O)n(-c4c(C)ccnc4C(C)C)c4cc(-c5c(O)cccc5F)cc(c34)OC[C@H]2C1 [Compound Z16, (R)-2-acryloyl-10-(2-fluoro-6-hydroxyphenyl)-8-(2-isopropyl-4-methylpyridin-3-yl)-1,2,3,4,13,13a-hexahydropyrazino[2′,1′:3,4][1,4]oxazepine[5,6,7-de]quinazolin-7 (8H)-one]",–,–,–,> 10 µM,29 nM,41 nM
"C=CC(=O)N1CCN2c3nc(=O)n(-c4c(C)ccnc4C(C)C)c4cc(-c5c(C)ccc6[nH]ncc56)c(Cl)c(c34)OC[C@@H]2C1 (single isomer, unassigned) [Compound Z26-1]",–,74 nM,31 nM,13.8 µM,–,–
"C=CC(=O)N1CCN2c3nc(=O)n(-c4c(C)ccnc4C(C)C)c4cc(-c5c(C)ccc6[nH]ncc56)c(Cl)c(c34)OC[C@@H]2C1 (atropisomer, axis not shown) [Compound Z26-2-2]",> 10 µM,3 nM,2 nM,–,–,–
C=CC(=O)N1CCN2c3nc(=O)n(-c4c(C(C)C)ncnc4C(C)C)c4nc(-c5c(O)cccc5F)c(F)c(c34)OC[C@H]2C1 [Compound Z98],–,–,–,> 10 µM,2 nM,1 nM
